Reference: patent publication US8822541B2, “Use of targeted nitroxide agents in mitigating or treating radiation injury” (University of Pittsburgh—Of the Commonwealth System of …, priority 2008, dated 2014)
Entries after “also recorded” stand apart in the source; their conditions may differ.

Experiments:
[1] = test system: mice exposed to total body irradiation; assay: Survival of mice after total body irradiation; format: in vivo, mouse
Procedure: Mice received intraperitoneal injection of 10 mg. per kilogram of each of the chemicals indicated in FIG. 5, then 24 hours later received 9.75 Gy total body irradiation according to published methods. Mice were followed for survival according to IACUC regulations. […] (P=0.0008).
Groups of 15 mice received intraperitoneal injection of 10 mg. per kilogram of each indicated GS-nitroxide compound or carrier (Cremphora plus alcohol at 1 to 1 ratio, then diluted 1 to 10 in distilled water). Mice received 10 mg per kilogram intra-peritoneal injection 24 hours prior to total body irradiation. Control mice received radiation alone. […] (P=0.0005)
C57BL/6NHsd female mice were irradiated to 9.5 Gy whole body irradiation. At 10 min, 30 min, 1 hr, 4 hr, or 8 hr after irradiation, the mice were injected intraperitoneally with JP4-039 (10 mg/kg). The mice were followed for the development of the irradiation induced hematopoietic syndrome.
Mice were irradiated to 9.5 Gy and injected IP 10 minutes later with concentration of JP-4-039 ranging from 0.5 mg/kg to 10 mg/kg. The mice were followed for developments of the hematopoietic syndrome. The optimal dose of JP4-039 providing the best irradiation protection is 5 mg/kg.

[2] = test system: MEF cells from Ercc1−/− mice; assay: Senescence, DNA damage, apoptosis and proliferation in Ercc1−/− MEF cells under oxidative stress; format: cell-based, mouse; settings: for γ-H2AX immunostaining: 1 μM, 48 hours; for γ-H2AX immunostaining / level of p16: 20% oxygen; for level of p16: 1 uM, 48 hrs
Procedure: Graphs showing weight over time of treated, untreated and control animals are shown in FIG. 36A-B. To assess the impact of XJB-5-131 at a cellular level, a number of experiments were carried out using mouse embryonic fibroblasts (“MEF”) cells harvested from Ercc1^−/− mouse embryos.
To test the protective activity of JP4-039, cultures of primary MEFs were prepared from Ercc1^−/− mouse embryos and grown under 20% oxygen (ambient air), which creates oxidative stress in these cells that are hypersensitive to reactive oxygen species. The cells were then either treated with a concentration of 1 uM XJB-5-131, JP4-039, JED-E71-37 or JED-E71-58, or left untreated (media), and then after 48 hrs the level of p16, a marker of irreversible cellular senescence, was measured by immunofluorescence staining.
To evaluate the protective activities of JED-E71-37 and JED-E71-58, primary MEF cells were prepared from Ercc1^−/− mice and grown under conditions of oxidative stress (ambient air, 20% oxygen). The cells were then either untreated or treated with 1 μM JED-E71-37 or JED-E71-58 for a period of 48 hours.
Next, the abilities of these two agents, as well as XJB-5-131 and JP4-039, each at a concentration of 1 μM, were tested for their ability to prevent oxidation-induced DNA double-strand breaks in cell cultures prepared, and oxidatively stressed, as in the preceding paragraph. Treated as well as untreated cells were, after 48 hours of treatment, immunostained for γ-H2AX, a marker of DNA double-strand breaks as well as cellular senescence.

[3] = test system: MEF cells from Ercc1−/− mouse embryos; assay: Toxicity of JP4-039 in Ercc1−/− MEF cultures; format: cell-based; settings: up to 10 μM
Procedure: (§1) To assess the therapeutic potential of JP4-039, tests for safety and protective activity were performed. FIGS. 35 and 36 show the results of tests to evaluate whether varying concentrations of JP4-039 produce toxic effects after 48 hours in cultures of MEF cells prepared from Ercc1^−/− or wild-type mouse embryos, respectively.

[4] = test system: MEF cells from wild-type mouse embryos; assay: Toxicity of JP4-039 in wild-type MEF cultures; format: cell-based; settings: up to 10 μM, 48 hours
Procedure: as §1

[5] = test system: rat ileal mucosa; assay: Peroxidation of phospholipids in intestinal mucosa after hemorrhagic shock; format: in vivo; settings: 10 μM intraluminal, 2 h HS
Description: Assay for peroxidation of phospholipids. Gut mucosal samples were homogenized. Lipids were extracted from homogenates using the Folch procedure, see M. Lees and G. H. Sloan-Stanley, A simple method for isolation and purification of total lipids from animal tissue, J. BIOL. CHEM. 226:497-509 (1957), and resolved by 2D HPTLC (High Performance Thin Layer Chromatography) as previously described, see Kagan, V. E. et al., A role for oxidative stress in apoptosis: Oxidation and externalization of phosphatidylserine is required for macrophage clearance of cell undergoing Fas-mediated apoptosis, J Immunol, 2002, 169:487-489. Spots of phospholipids'were scraped from HPTLC plates and phospholipids were extracted from silica. Lipid phosphorus was determined by a micro-method, see Bottcher, C. J. F. et al., A rapid and sensitive sub-micro phosphorus determination, Anal Chim Acta. 1961, 24: 203-204.
Oxidized phospholipids were hydrolyzed by pancreatic phospholipase A2 (2 U/μl) in 25 mM phosphate buffer containing 1 mM CaCl2, 0.5 mM EDTA and 0.5 mM sodium dodecyl sulfate (SDS) (pH 8.0, at room temperature for 30 min). Fatty acid hydroperoxides formed were determined by fluorescence HPLC of resorufin stoichiometrically formed during their microperoxidase 11-catalized reduction in presence of Amplex Red (for 40 min at 4° C.) (8). Fluorescence HPLC (Eclipse XDB-C18 column, 5 μm, 150×4.6 mm, mobile phase was composed of 25 mM disodium phosphate buffer (pH 7.0)/methanol (60:40 v/v); excitation wavelength 560 nm, emission wavelength 590 nm) was performed on a Shimadzu LC-100AT HPLC system equipped with fluorescence detector (RF-10Axl) and autosampler (SIL-10AD).
(§2) In the subsequent series of in vivo studies, the affect of intraluminal XJB-5-131 on hemorrhage-induced peroxidation of phospholipids in intestinal mucosa was examined. […] In a preferred embodiment, 0.3 mL of test solution filled the lumen of each ileal compartment.
After two hours of HS, samples of ileal mucosa from the gut sacs filled with the vehicle and XJB-5-131 were obtained and compared with ileal mucosa of normal MECs. […]

[6] = test system: caspases 3 and 7; assay: Caspases 3 and 7 activity in gut mucosa after hemorrhagic shock; format: in vivo, rat; settings: 10 μM intraluminal, vs vehicle
Procedure: Caspases 3 and 7 activity assay. Caspases 3 and 7 activity was measured using a commercially available assay kit, Caspase GIo™ 3/7 assay kit (Promega, Madison, Wis.). Briefly, 50 μl of rat gut mucosa homogenate (20 jug protein) was mixed with 50 μl of Caspase-Glo™ reagent and incubated at room temperature for 1 hour. At the end of incubation period, the luminescence of each sample was measured using a plate reading chemiluminometer (ML1000, Dynatech Laboratories, Horsham, Pa.). Activity of caspases 3 and 7 was expressed as luminescence intensity (arbitrary units per mg protein). Protein concentrations were determined using the BioRad assay (Bio-Rad Laboratories, Inc., Hercules, Calif.).
as §2
After two hours of HS, samples of ileal mucosa from the gut sacs filled with the vehicle and XJB-5-131 were obtained and compared with ileal mucosa of normal MECs. All samples were assayed with caspase 3 or caspase 7 activity as well as the peroxidation of phosphatidylcholine (“PC”), phosphatidylethanolamine (“PE”), phosphatidylserine (“PS”), and cardiolipin (“CL”), summarized in FIG. 7.

Structure (SMILES)	survival of mice ([1]; 9.5 Gy TBI, 10 mg/kg ip 24 hours prior)	optimal time of delivery for radiation mitigation ([1]; 9.5 Gy, 10 mg/kg ip after irradiation)	optimal dose providing the best irradiation protection ([1]; 9.5 Gy, IP 10 minutes after irradiation)	survival of mice ([1]; 9.75 Gy TBI, 10 mg/kg ip 24 hours before)	γ-H2AX immunostaining [2]	level of p16 [2]	cellular proliferation relative to untreated control cells ([3]; Ercc1−/− or wild-type MEF)	toxicity ([3]; 48 hours)	toxicity [4]	peroxidation of phosphatidylcholine (PC) [5]	peroxidation of phosphatidylethanolamine (PE) [5]	peroxidation of phosphatidylserine (PS) [5]	caspase 3 and 7 activity after hemorrhagic shock [6]	SA-β galactosidase staining ([2]; 500 nM)	amount of apoptosis ([2]; 500 nM)	number of γH2AX foci ([2]; 500 nM)
CC(C)C[C@@H](/C=C/CC(=O)NC1CC(C)(C)N([O])C(C)(C)C1)NC(=O)OC(C)(C)C [JP4-039, TEMPO-4-yl-(S,E)-5-(tert-butoxycarbonylamino)-7-methyloct-3-enamide]	increases survival	1 h	5 mg/kg	significant increase in survival	also effective	much lower	enhanced	no signs of toxicity; also recorded: not toxic	no signs of toxicity; also recorded: not toxic							
CC(C)C[C@@H](/C=C/[C@H](Cc1ccccc1)C(=O)N1CCC[C@H]1C(=O)N[C@H](C(=O)N[C@@H](CCCNC(=O)OCc1ccccc1)C(=O)NC1CC(C)(C)N([O])C(C)(C)C1)C(C)C)NC(=O)OC(C)(C)C [XJB-5-131]					less effective	less effective				no effect	small effect	no effect	significantly decreased	notably less	did not reduce the amount of apoptosis	reduce the number of γH2AX foci
